This is an account of results in patent publication US20140378551A1, “Composition for the Prophylactic Treatment of Neuropathic Pain” (Universite d'Auvergne, priority 2011, published 2014).

The test system of assay [1] is neuropathic pain induced by spinal nerve ligation among rats. Nature of the assay: Paw pressure test (Randall & Selitto): mechanical hyperalgesia, spinal nerve ligation model. The class given is in vivo, rat. Here is the method: (§1) The effects of the prolonged and preventive administration of memantine were first of all studied among rats. The model used was that of the ligation of the spinal nerve L5 (herein after called SNL for spinal nerve ligation) among rats. The emergence of neuropathic pain is assessed according to the following criteria: • the behavior of the rat following the spinal nerve ligation (SNL), • cognition, and • molecular events, including the expression of phosphorylated tyrosine 1472 of the NR2B sub-unit of the NMDA receptor at the spinal level.
(§2) The study was based on the comparison of the two main groups of animals. The first group was a control group. The rats of the control group, designated as “Sham” in the graphs, underwent no operation. They are used to assess the role of the injected substances on the individual, without there being any emergence of neuropathic pain.
(§3) Two sub-groups were set up in this group: • one sub-group treated with the vehicle which is a saline solution of NaCl 0.9% by mass, in a dose of 1 mL/kg/rat/day, by intraperitoneal injection; and • one sub-group treated with memantine in a dose of 20 mg/kg/rat/day, by intraperitoneal injection.
(§4) The second group of animals comprises rats having to undergo to spinal nerve ligation and therefore likely to develop neuropathic pain. This group is referred to in the graphs by the term SNL. As in the control group, this group is divided into two sub-groups: • one sub-group treated with the vehicle, which is a saline solution of NaCl 0.9% by mass, in a dose of 1 mL/kg/rat/day, by intraperitoneal injection; and • one sub-group treated by memantine in a dose of 20 mg/kg/rat/day, by intraperitoneal injection. […]
(§5) 7. Seven to 14 days after the surgery, the neuropathic, hyperalgesic or allodynic rats are selected according to their response to nociceptive and non-nociceptive stimulation assessed through appropriate tests (see paragraph 6.1.2). […]

The test system is the same in assay [2]. The assay is described as follows: Von Frey test: mechanical allodynia, spinal nerve ligation model. The format is in vivo. The note with it: 20 mg/kg/rat/day i.p. Here is the method:
as §1, §2, §3, §4, §5

Assay [3] has as its system tyrosine 1472 of the NR2B sub-unit of the NMDA receptor. Nature of the assay: Western blot of phosphorylated tyrosine 1472 of NR2B at the spinal level. The format is in vivo, rat. As to the method: The effects of memantine are also evaluated in the expression of the phosphorylation of tyrosine 1472 of the NR2B sub-unit of the NMDA receptor at the spinal level by the Western-blot technique.
The rats are sacrificed by decapitation. The lumbar enlargements (L4-L6) are collected and subjected to lysis at 4° C. in 400 μL of stop buffer (50 mM Hepes, pH 7.5, containing 150 mM NaCl, 10 mM EDTA, 10 mM Na2P2O7, 2 mM Na3VO4, 100 mM NaF 1% Triton, 0.5 mM PMSF, 100 UI/mL Iniprol and 20 μM Leupeptine).
After sonication, two operations of centrifugation at 14,000 rpm at 4° C. are used to retrieve the proteins from the cytoplasm. The supernatant is retrieved and the proteins are determined by colorimetry (BC Assay UP40840A®, Interchim). They are denatured at 100° C. for five minutes in a buffer Tris 100 mM, pH 6.8, containing 6% SDS, 20% Glycerol and 20% bromophenol/(β-mercaptoethanol. Electrophoresis is used to separate the proteins on a polyacrylamide gel. The migration is done at 90 mA for two hours in the following buffer: Tris 50 mM, pH 7.4, containing 380 mM Glycine and 7 mM SDS. The proteins are then transferred to a nitrocellulose membrane (Millipore) for three hours in a buffer Tris 25 mM, pH 8.3, containing 190 mM Glycine, 20% methanol (percentage by volume). The protocols are carried out according to the recommendations of the supplier and differ according to the antibody considered.
After blocking of the non-specific sites with a solution containing 5% of non-fat dried milk, the membrane is incubated throughout the night at […] under agitation with the antibody of interest diluted in the blocking solution, namely an anti-pTyr^1472 NR2B antibody recognizing NR2B phosphorylated on tyrosine 1472 (dilution by volume=1/1000, Millipore).
The membrane is then hybridized for one hour under agitation with an antibody coupled with peroxydase (dilution by volume=1/10 000, Pierce) diluted in the blocking buffer.
The developing is done by chemiluminescence (Super Signal® West Pico
Chemiluminescent Substrate, Pierce). […]

As for `CC12CC3CC(C)(C1)CC(N)(C3)C2` [memantine, 1-amino-3,5-dimethyl-adamantane], the “vocalization threshold (mechanical hyperalgesia)” value in assay [1] (SNL rats, 20 mg/kg/rat/day i.p., four days before and three days after the operation) is reported as “vocalization threshold very close to that of non-operated rats”; in assay [1] (SNL rats, 20 mg/kg/rat/day i.p., post-operative injection only (three days after operation)), “not enough to restore a normal vocalization threshold”; in assay [1] (non-operated (Sham) rats, 20 mg/kg/rat/day intraperitoneal, versus vehicle), “no influence whatsoever on the behavior of non-operated rats”. For the same compound, the “threshold of response (mechanical allodynia)” value in assay [2] (SNL rats, 4 days preceding and 3 days following the operation) was “restores a threshold of response almost identical to that of non-operated rats”; in assay [2] (SNL rats, solely post-operative injection), “not enough to restore the normal behavior of the rats”; in assay [2] (non-operated (Sham) rats, versus vehicle), “no influence whatsoever on the behavior of non-operated rats”. In addition, the “rate of phosphorylation of the tyrosine 1472 residue of NR2B” value in assay [3] (SNL rats treated preventively, spinal cord, Western blot) is “equivalent firstly to that of the non-treated Sham rats and is secondly far lower than that of the operated rats that have not been treated with memantine”. Moreover, the “phosphorylation of the tyrosine 1472 residue of NR2B” value in assay [3] (Sham rats, spinal cord, Western blot) is “does not significantly diminish the phosphorylation of the tyrosine 1472 residue”. Further, the “phosphorylation of the tyrosine residue at position 1472 (pTyr1472) of NR2B” value in assay [3] (summary statement) is on record as “significantly inhibits the phosphorylation”.
